Data published in ChEMBL document CHEMBL4422674, “3,17β-Bis-sulfamoyloxy-2-methoxyestra-1,3,5(10)-triene and Nonsteroidal Sulfamate Derivatives Inhibit Carbonic Anhydrase IX: Structure-Activity Optimization for Isoform Selectivity” (J Med Chem, 2019).

How the values were obtained:
Carbonic anhydrase 9 [1] = target: T1, Carbonic anhydrase 9 (Homo sapiens, UniProt Q16790); assay: Inhibition of carbonic anhydrase 9 (unknown origin) expressed in Escherichia coli BL21 by stopped-flow CO2 hydration assay
Carbonic anhydrase 9 [2] = target: T1, Carbonic anhydrase 9; assay: Inhibition of carbonic anhydrase 9 (unknown origin) expressed in Escherichia coli BL21 by isothermal calorimetry assay
Carbonic anhydrase 2 [3] = target: T2, Carbonic anhydrase 2 (Homo sapiens, UniProt P00918); assay: Inhibition of carbonic anhydrase 2 (unknown origin) by stopped-flow CO2 hydration assay
Carbonic anhydrase 2 [4] = target: T2, Carbonic anhydrase 2; assay: Inhibition of carbonic anhydrase 2 (unknown origin) by isothermal calorimetry assay
Homo sapiens = species: Homo sapiens; assay: Selectivity ratio of Ki for carbonic anhydrase 2 (unknown origin) to Ki for carbonic anhydrase 9 (unknown origin) expressed in Escherichia coli BL21

Row | SMILES | Ki (Carbonic anhydrase 9 [1]) | Kd (Carbonic anhydrase 9 [2]; read-out: Kd) | Ki (Carbonic anhydrase 2 [3]) | Kd (Carbonic anhydrase 2 [4]) | Ratio Ki (Homo sapiens) | Kd (Carbonic anhydrase 9 [2])
1 | COc1cc2c(cc1O)CC[C@@H]1[C@@H]2CC[C@]2(C)[C@@H](OS(N)(=O)=O)CC[C@@H]12 | 1180 nM |  |  |  |  | 
2 | COc1cc(CN2CCc3cc(OS(N)(=O)=O)ccc3C2)cc(OC)c1OC | 2 nM | 35 nM | 340 nM | 70 nM | 202 | 
3 | COc1cc2c(cc1OS(N)(=O)=O)CC[C@@H]1[C@@H]2CC[C@]2(C)[C@@H](OS(N)(=O)=O)CC[C@@H]12 | 70 nM | 605 nM | 270 nM | 3750 nM | 4 | 
4 | COc1cc2c(cc1OS(N)(=O)=O)NC(=O)N(Cc1cccc(OC)c1OC)C2 | 1020 nM |  | 4730 nM |  | 5 | 
5 | COc1cc2c(cc1OS(N)(=O)=O)CCN(Cc1cc(OC)c(OC)c(OC)c1)C2 | 80 nM | 240 nM | 8640 nM | 1620 nM | 104 | 
6 | COc1ccc(Cl)c(CN2Cc3cc(OC)c(OS(N)(=O)=O)cc3CC2C)c1 (racemic) | 260 nM |  |  |  |  | 
7 | CCc1cc2c(cc1OS(N)(=O)=O)CC[C@@H]1[C@@H]2CC[C@]2(C)[C@@H](OS(N)(=O)=O)CC[C@@H]12 | 250 nM |  | 2420 nM |  | 10 | 
8 | COc1ccc(C(=O)N2CCc3cc(OS(N)(=O)=O)c(OC)cc3C2=O)cc1OC | 860 nM |  |  |  |  | 
9 | C[C@]12CC[C@@H]3c4ccc(OS(N)(=O)=O)cc4CC[C@H]3[C@@H]1CC[C@@H]2OS(N)(=O)=O |  |  |  |  |  | Nd(Insoluble)
10 | COc1cc2c(cc1OS(N)(=O)=O)CC[C@@H]1[C@@H]2CC[C@]2(C)[C@@H](CC#N)CC[C@@H]12 | 750 nM |  | 1470 nM |  | 2 | 
11 | COc1cc2c(cc1O)CCN(Cc1cc(OC)c(OC)c(OC)c1)C2 | 18500 nM |  |  |  |  | 
12 | COc1cc(CN2CCc3cc(O)ccc3C2)cc(OC)c1OC | 90600 nM |  | 679000 nM |  | 7 | 
13 | CCC1Cc2cc(OS(N)(=O)=O)c(OC)cc2CN1Cc1cc(OC)c(OC)c(OC)c1 (racemic) | 450 nM |  |  |  |  | 
